{"source": "patent US8927459B2", "about": "“Vegetation treatment” (Arctic, Inc., priority 2008, dated 2015)", "key": {"large crabgrass": {"tested_on": "large crabgrass", "assay": "greenhouse-grown crabgrass treated with non-insulated CO2 prototype, visual percent control", "format": "in vivo", "conditions": "for % control: 2 lbs CO2; for percent control: 2-3 tiller greenhouse-grown, seven days after treatment (FIG. 2)", "method": "(§1) Greenhouse-grown crabgrass plants were treated with the prototype containing either an 8002 flat fan nozzle (which was measured to release 2 pounds of CO2 per minute) or with an 8004 flat fan nozzle (which releases 4 pounds of CO2 per minute), to determine if the rate of application affects the percent control achieved. Control means killing or death of the plants as determined by visual observation. The percent control is a visual rating of the treated plant compared to an untreated control plant. In other words, it is the percent of plant death. Trials were conducted in triplicate.\nSimilarly, treatment for 15 seconds with the 2 lb/min nozzle results in 17 percent control with 0.5 pounds of CO2 dispensed, while treatment with the 4 lb/min nozzle for 5 seconds results in 12 percent control with 0.3 pounds of CO2 dispensed. From this study, it was concluded that for crabgrass, the total amount (dose) of CO2 applied correlates with % control. See FIG. 4, which graphs % control vs. CO2 dose with two different application rates.\nIn the data presented in FIG. 3, the crabgrass plants are larger. They are at the 3-4 tiller stage, whereas the plants in the data presented in FIG. 2 were 2-3 tiller plants. The CO2 application controlled both plant sizes well, and with the larger plants the same trend of percent control corresponding to the total pounds of CO2 applied was observed. In both cases the LD50 is over 1 pound CO2/plant.\n(§2) Most commercial herbicides achieve 80% control or better. The prototype used 2 pounds of CO2 to achieve this level of control for one 6″ plant. At the 2 lb/plant dispensing rate, a commercial 25-lb cylinder of CO2 would only treat 10 plants; clearly efficiency increases were needed to create a viable backpack sprayer system. An insulating cone was attached around the nozzle with the expectation of possibly achieving a modest increase in efficiency, perhaps cutting the CO2 requirement by 20-50%."}, "crabgrass": {"tested_on": "crabgrass", "assay": "field-grown crabgrass treated with CO2 prototype with insulating cone, percent control", "format": "in vivo", "conditions": "for % control: insulated prototype, 0.15 lbs CO2", "method": "as §1, §2\nUnexpectedly, a greater than ten-fold reduction in the CO2 usage was achieved (Table 1). The results are especially remarkable since field-grown plants (treated with the insulated design) are usually harder to kill than greenhouse-grown plants that were treated with the non-insulated design."}}}
{"smiles": "O=C=O", "note": "[CO2, carbon dioxide]", "values": [{"measurement": "% control", "setting": "large crabgrass; 2-3 tiller greenhouse, non-insulated prototype", "value": 75, "unit": "%"}, {"measurement": "LD50", "setting": "large crabgrass; 2-3 tiller plants, non-insulated prototype", "value": "over 1 pound CO2/plant"}, {"measurement": "percent control", "setting": "large crabgrass; 2 lb/min nozzle, 15 seconds, 0.5 pounds of CO2 dispensed", "value": 17, "unit": "%"}, {"measurement": "percent control", "setting": "large crabgrass; 2 lb/min nozzle, 30 seconds, one pound of CO2 dispensed", "value": 40, "unit": "%"}, {"measurement": "% control", "setting": "large crabgrass; 3-4 tiller greenhouse, non-insulated prototype", "value": 87, "unit": "%"}, {"measurement": "LD50", "setting": "large crabgrass; 3-4 tiller plants, non-insulated prototype", "value": "over 1 pound CO2/plant"}, {"measurement": "percent control", "setting": "large crabgrass; 4 lb/min nozzle, 5 seconds, 0.3 pounds of CO2 dispensed", "value": 12, "unit": "%"}, {"measurement": "percent control", "setting": "large crabgrass; 4 lb/min nozzle, 15 seconds, one pound of CO2 dispensed", "value": 42, "unit": "%"}, {"measurement": "amount of CO2 used to achieve 80% control or better", "setting": "large crabgrass; non-insulated prototype, one 6″ plant", "value": 2, "unit": "pounds"}, {"measurement": "LD50 (lethal dose to 50% of plants)", "setting": "large crabgrass; without insulated cone", "value": "2 pounds of CO2 per plant"}, {"measurement": "% control", "setting": "crabgrass; 2-3 tiller field", "value": "80+ %"}, {"measurement": "% control", "setting": "crabgrass; 2-3 tiller field, listed as carbon dioxide", "value": "≥ 80", "unit": "%"}, {"measurement": "% control", "setting": "crabgrass; 3-4 tiller field", "value": "80+ %"}, {"measurement": "% control", "setting": "crabgrass; 3-4 tiller field, listed as carbon dioxide", "value": "≥ 80", "unit": "%"}, {"measurement": "LD50 (lethal dose to 50% of plants)", "setting": "crabgrass; with insulated cone", "value": "less than 0.2 lbs/CO2 per plant"}]}
